Measured values published in patent US20140120232A1, “ACID TASTE/ACID SMELL-REDUCING AGENT” (T. HASEGAWA CO., LTD., priority 2011, published 2014).

Experiment: Sensory evaluation of dressing containing the agent
Settings: ten panels
Procedure: Sensory evaluation of each drink was carried out by ten panels. […] The piercing aroma characteristic to aldehydes is a characteristic aroma common to every aldehyde and refers to an irritant off-smell giving an image of deteriorated oils and fats, soap, metals, Houttuynia cordata, etc. The judgment of smell was performed by comparing the effects at different concentrations of the acid taste and/or acid smell-reducing agent, and a concentration giving the highest acid taste/acid smell quality was selected.
A separation-type dressing base material (100 g) was prepared by mixing 20 g of edible vinegar, 35 g of vegetable oils and fats, and 45 g of an aqueous solution containing spices and extracts with stirring. To the resulting mixture was added (Z,Z)-4,7-tridecadienal as the acid taste and/or acid smell-reducing agent of the present invention in concentrations shown in the following Table 10 to give dressings containing the agent, followed by sensory evaluation as in Example 1.

CCCCC/C=C\C/C=C\CCC=O [(Z,Z)-4,7-tridecadienal]
A: number of panels, acid taste/acid smell extreme and cause irritation (0.005 ppt): 10
B: number of panels, acid taste/acid smell slightly strong and slightly cause irritation (0.005 ppt): 0
C: number of panels, acid taste/acid smell slightly unpleasant (0.005 ppt): 0
Flavor judgment: number of panels who judged acid taste/acid smell quality the highest (0.005 ppt): 0
N: number of panels, irritation of acid reduced to give a mild acid taste (0.005 ppt): 0
X: number of panels, acid taste reduced but piercing odor characteristic to aldehydes unpleasant (0.005 ppt): 0
A: number of panels, acid taste/acid smell extreme and cause irritation (0.02 ppt): 9
B: number of panels, acid taste/acid smell slightly strong and slightly cause irritation (0.02 ppt): 1
C: number of panels, acid taste/acid smell slightly unpleasant (0.02 ppt): 0
Flavor judgment: number of panels who judged acid taste/acid smell quality the highest (0.02 ppt): 0
N: number of panels, irritation of acid reduced to give a mild acid taste (0.02 ppt): 0
X: number of panels, acid taste reduced but piercing odor characteristic to aldehydes unpleasant (0.02 ppt): 0
A: number of panels, acid taste/acid smell extreme and cause irritation (0.1 ppt): 6
B: number of panels, acid taste/acid smell slightly strong and slightly cause irritation (0.1 ppt): 4
C: number of panels, acid taste/acid smell slightly unpleasant (0.1 ppt): 0
Flavor judgment: number of panels who judged acid taste/acid smell quality the highest (0.1 ppt): 0
N: number of panels, irritation of acid reduced to give a mild acid taste (0.1 ppt): 0
X: number of panels, acid taste reduced but piercing odor characteristic to aldehydes unpleasant (0.1 ppt): 0
A: number of panels, acid taste/acid smell extreme and cause irritation (0.2 ppt): 4
B: number of panels, acid taste/acid smell slightly strong and slightly cause irritation (0.2 ppt): 4
C: number of panels, acid taste/acid smell slightly unpleasant (0.2 ppt): 2
Flavor judgment: number of panels who judged acid taste/acid smell quality the highest (0.2 ppt): 0
N: number of panels, irritation of acid reduced to give a mild acid taste (0.2 ppt): 0
X: number of panels, acid taste reduced but piercing odor characteristic to aldehydes unpleasant (0.2 ppt): 0
A: number of panels, acid taste/acid smell extreme and cause irritation (0.5 ppt): 1
B: number of panels, acid taste/acid smell slightly strong and slightly cause irritation (0.5 ppt): 2
C: number of panels, acid taste/acid smell slightly unpleasant (0.5 ppt): 2
Flavor judgment: number of panels who judged acid taste/acid smell quality the highest (0.5 ppt): 1
N: number of panels, irritation of acid reduced to give a mild acid taste (0.5 ppt): 5
X: number of panels, acid taste reduced but piercing odor characteristic to aldehydes unpleasant (0.5 ppt): 0
A: number of panels, acid taste/acid smell extreme and cause irritation (1 ppb): 0
B: number of panels, acid taste/acid smell slightly strong and slightly cause irritation (1 ppb): 0
C: number of panels, acid taste/acid smell slightly unpleasant (1 ppb): 3
Flavor judgment: number of panels who judged acid taste/acid smell quality the highest (1 ppb): 0
N: number of panels, irritation of acid reduced to give a mild acid taste (1 ppb): 3
X: number of panels, acid taste reduced but piercing odor characteristic to aldehydes unpleasant (1 ppb): 4
A: number of panels, acid taste/acid smell extreme and cause irritation (1 ppt): 0
B: number of panels, acid taste/acid smell slightly strong and slightly cause irritation (1 ppt): 1
C: number of panels, acid taste/acid smell slightly unpleasant (1 ppt): 3
Flavor judgment: number of panels who judged acid taste/acid smell quality the highest (1 ppt): 1
N: number of panels, irritation of acid reduced to give a mild acid taste (1 ppt): 6
X: number of panels, acid taste reduced but piercing odor characteristic to aldehydes unpleasant (1 ppt): 0
A: number of panels, acid taste/acid smell extreme and cause irritation (5 ppt): 0
B: number of panels, acid taste/acid smell slightly strong and slightly cause irritation (5 ppt): 0
C: number of panels, acid taste/acid smell slightly unpleasant (5 ppt): 3
Flavor judgment: number of panels who judged acid taste/acid smell quality the highest (5 ppt): 4
N: number of panels, irritation of acid reduced to give a mild acid taste (5 ppt): 7
X: number of panels, acid taste reduced but piercing odor characteristic to aldehydes unpleasant (5 ppt): 0
A: number of panels, acid taste/acid smell extreme and cause irritation (10 ppb): 0
B: number of panels, acid taste/acid smell slightly strong and slightly cause irritation (10 ppb): 0
C: number of panels, acid taste/acid smell slightly unpleasant (10 ppb): 1
Flavor judgment: number of panels who judged acid taste/acid smell quality the highest (10 ppb): 0
N: number of panels, irritation of acid reduced to give a mild acid taste (10 ppb): 2
X: number of panels, acid taste reduced but piercing odor characteristic to aldehydes unpleasant (10 ppb): 7
A: number of panels, acid taste/acid smell extreme and cause irritation (20 ppt): 0
B: number of panels, acid taste/acid smell slightly strong and slightly cause irritation (20 ppt): 0
C: number of panels, acid taste/acid smell slightly unpleasant (20 ppt): 3
Flavor judgment: number of panels who judged acid taste/acid smell quality the highest (20 ppt): 4
N: number of panels, irritation of acid reduced to give a mild acid taste (20 ppt): 7
X: number of panels, acid taste reduced but piercing odor characteristic to aldehydes unpleasant (20 ppt): 0
A: number of panels, acid taste/acid smell extreme and cause irritation (50 ppb): 0
B: number of panels, acid taste/acid smell slightly strong and slightly cause irritation (50 ppb): 0
C: number of panels, acid taste/acid smell slightly unpleasant (50 ppb): 0
Flavor judgment: number of panels who judged acid taste/acid smell quality the highest (50 ppb): 0
N: number of panels, irritation of acid reduced to give a mild acid taste (50 ppb): 2
X: number of panels, acid taste reduced but piercing odor characteristic to aldehydes unpleasant (50 ppb): 8
A: number of panels, acid taste/acid smell extreme and cause irritation (100 ppt): 0
B: number of panels, acid taste/acid smell slightly strong and slightly cause irritation (100 ppt): 1
C: number of panels, acid taste/acid smell slightly unpleasant (100 ppt): 3
Flavor judgment: number of panels who judged acid taste/acid smell quality the highest (100 ppt): 0
N: number of panels, irritation of acid reduced to give a mild acid taste (100 ppt): 4
X: number of panels, acid taste reduced but piercing odor characteristic to aldehydes unpleasant (100 ppt): 2
A: number of panels, acid taste/acid smell extreme and cause irritation (500 ppt): 0
B: number of panels, acid taste/acid smell slightly strong and slightly cause irritation (500 ppt): 0
C: number of panels, acid taste/acid smell slightly unpleasant (500 ppt): 4
Flavor judgment: number of panels who judged acid taste/acid smell quality the highest (500 ppt): 0
N: number of panels, irritation of acid reduced to give a mild acid taste (500 ppt): 4
X: number of panels, acid taste reduced but piercing odor characteristic to aldehydes unpleasant (500 ppt): 2
